Test results from ChEMBL document CHEMBL1201862, “PubChem BioAssay data set” (2004).
Calls of active or inactive are those of the source.

What was measured:
[1] = biological target: Eukaryotic translation initiation factor 4E (Mus musculus, UniProt P63073); test: blockers of eIF4G binding by eIF4E – biochemical, TR-FRET, dose response (AID 855); assay type: functional;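 note: potency for disrupting eIF4E binding to eIF4GI seen as loss of FRET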
[2] = biological target: T1, Streptokinase A (Streptococcus pyogenes serotype M1, UniProt P10520); test: viability-normalized secreted streptokinase activity reduction – plasminogen activation absorbance, OD405, dose response (AID 1914); assay type: functional, Streptococcus pyogenes M1 GAS;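 note: secreted streptokinase activity via plasminogen activation per viability signal from cell pellet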
T1 sequence (P10520 whole entry): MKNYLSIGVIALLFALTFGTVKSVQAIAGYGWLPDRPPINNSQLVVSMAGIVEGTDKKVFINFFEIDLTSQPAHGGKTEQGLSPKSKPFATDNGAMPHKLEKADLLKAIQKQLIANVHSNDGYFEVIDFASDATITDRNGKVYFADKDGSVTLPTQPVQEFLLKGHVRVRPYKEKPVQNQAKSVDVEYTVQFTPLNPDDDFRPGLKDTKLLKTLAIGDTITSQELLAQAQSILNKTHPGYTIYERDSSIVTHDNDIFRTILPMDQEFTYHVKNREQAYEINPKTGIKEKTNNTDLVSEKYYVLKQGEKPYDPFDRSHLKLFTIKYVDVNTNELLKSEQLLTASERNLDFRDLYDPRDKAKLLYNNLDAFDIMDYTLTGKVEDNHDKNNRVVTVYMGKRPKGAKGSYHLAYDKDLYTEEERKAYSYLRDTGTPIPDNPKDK

[3] = NIH3T3 cell viability loss – ATP luminescence, mouse fibroblasts, counter-screen, dose response (AID 2010); assay type: functional, cell-based;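 note: cells exposed to compound for about 90 hours before reading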
[4] = biological target: T2, Calpain-2 catalytic subunit (Sus scrofa, UniProt P43367); test: m-calpain protease blockers, concentration series – biochemical, fluorogenic peptide substrate, dose response (AID 1420); assay type: functional
T2 sequence (P43367 whole entry): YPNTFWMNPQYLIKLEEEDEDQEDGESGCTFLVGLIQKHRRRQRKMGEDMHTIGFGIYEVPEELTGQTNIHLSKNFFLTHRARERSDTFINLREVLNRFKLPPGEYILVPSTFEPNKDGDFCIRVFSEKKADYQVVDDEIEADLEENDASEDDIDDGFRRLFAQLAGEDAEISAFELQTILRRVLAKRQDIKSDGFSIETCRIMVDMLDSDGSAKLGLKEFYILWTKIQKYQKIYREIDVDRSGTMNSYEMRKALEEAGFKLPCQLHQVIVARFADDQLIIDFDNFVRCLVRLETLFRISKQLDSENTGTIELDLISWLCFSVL

[5] = system: Streptococcus sp. 'group A'; test: Streptococcus pyogenes SK(-)GAS viability under kanamycin – luminescence, BacTiterGlo, confirmation, counter-screen for streptokinase expression inhibitor project, dose response (AID 1900); assay type: functional, organism-based
[6] = Trypanosoma cruzi growth suppression in host cells – NIH3T3 host cells, beta-gal luminescence, confirmation (AID 2044); assay type: functional, cell-based;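 note: intracellular parasites grown in NIH/3T3 mouse fibroblasts as host cells; luminescent beta-galactosidase reporter signal from transgenic T. cruzi replicating inside host cells; inhibitors lower the luminescence signal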
[7] = system: Streptococcus; test: GAS UMAA2166 growth inhibition – luminescence, BacTiterGlo, counter-screen for streptokinase expression inhibitor project, dose response (AID 1915); assay type: functional, organism-based;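 note: potency for reduction of bacterial viability or growth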
[8] = viability loss in Vero cells – cytotoxicity control for Vif-APOBEC3G degradation inhibitor project, dose response (AID 1117358); assay type: functional; details: Vero
[9] = biological target: Prothrombin (Homo sapiens, UniProt P00734); test: Thrombin 1536 HTS Dose Response Confirmation. [Related pubchem assays: 1046 (Thrombin 1536 HTS; hits were confirmed in this assay)]; assay type: functional
[10] = biological target: Peroxisome proliferator-activated receptor gamma/Nuclear receptor coactivator 3 (Homo sapiens, UniProt P37231); test: TR-FRET dose response biochemical High Throughput Screening assay for agonists of the steroid receptor coactivator 3 (SRC-3) recruitment by the peroxisome proliferator-activated receptor gamma (PPAR gamma): non-selective agonists. [Related pubchem assays: 1301 (Confirmation screen.), 1048 (Primary screen.)]; assay type: functional
[11] = biological target: Peroxisome proliferator-activated receptor gamma/Nuclear receptor coactivator 2 (Homo sapiens, UniProt P37231); test: (§1) TR-FRET dose response biochemical High Throughput Screening assay for agonists of the steroid receptor coactivator 2 (SRC-2) recruitment by the peroxisome proliferator-activated receptor gamma (PPAR gamma): non-selective agonists. [Related pubchem assays: 1297, 1032 ]; assay type: functional
[12] = biological target: Peroxisome proliferator-activated receptor gamma/Nuclear receptor coactivator 1 (Homo sapiens, UniProt P37231); test: as §1, with “1 (SRC-1)” for “2 (SRC-2)”, “assays (depositor defined):AID1300, AID1808, AID504735, AID631]” for “assays: 1297, 1032 ]”; assay type: protein assay
[13] = biological target: T3, Leucine aminopeptidase (Plasmodium falciparum 3D7, UniProt Q8IL11); test: P. falciparum M17LAP inhibitors, primary screen, biochemical, fluorogenic H-Leu-NHMec substrate, 1536-well (AID 1619); assay type: functional
T3 sequence (Q8IL11 whole entry): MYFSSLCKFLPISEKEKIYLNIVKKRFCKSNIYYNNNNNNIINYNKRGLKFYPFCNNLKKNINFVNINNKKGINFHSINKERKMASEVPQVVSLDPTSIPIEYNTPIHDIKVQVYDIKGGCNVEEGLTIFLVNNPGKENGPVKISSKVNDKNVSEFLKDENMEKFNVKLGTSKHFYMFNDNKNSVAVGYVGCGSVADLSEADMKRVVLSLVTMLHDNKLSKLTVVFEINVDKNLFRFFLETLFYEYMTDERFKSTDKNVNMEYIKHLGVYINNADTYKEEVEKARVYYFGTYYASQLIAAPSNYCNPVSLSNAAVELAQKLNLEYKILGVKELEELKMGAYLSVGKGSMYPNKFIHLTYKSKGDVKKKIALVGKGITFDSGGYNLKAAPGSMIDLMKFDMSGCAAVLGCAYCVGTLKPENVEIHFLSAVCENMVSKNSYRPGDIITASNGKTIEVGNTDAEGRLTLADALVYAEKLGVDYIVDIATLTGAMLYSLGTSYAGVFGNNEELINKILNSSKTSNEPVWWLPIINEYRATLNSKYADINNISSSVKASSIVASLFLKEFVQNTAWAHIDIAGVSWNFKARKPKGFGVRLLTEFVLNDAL

[14] = Luminescence Cell-Based Dose Confirmation HTS to Identify Activators of 5'UTR Stem-Loop Driven Alpha-Synuclein mRNA Translation in H4 Neuroglioblastoma Cells. [Related pubchem assays: 1829 (Project Summary), 1814 (Primary HTS)]; assay type: functional
[15] = Luminescence Cell-Based Dose Response HTS to Identify Activators of Luciferase Translation or Activity in H4 […] Cells. [Related pubchem assays: 1829 (Project Summary), 1814 (Primary HTS)]; assay type: functional
[16] = system: H4; test: Luminescence Cell-Based Dose Response HTS to Identify Activators of 5'UTR Stem-Loop Driven Prion Protein mRNA Translation in H4 Neuroglioblastoma Cells. [Related pubchem assays: 1829 (Project Summary), 1814 (Primary HTS)]; assay type: functional; details: Homo sapiens
[17] = viability loss of HPDE-C7K cells – cell-based, fluorescence, HTS, primary screen (AID 431); assay type: functional; details: Homo sapiens
[18] = HPDE-C7 pancreatic duct cell viability loss – fluorescence, HTS (AID 430); assay type: functional, cell-based; details: Homo sapiens
[19] = biological target: DNA dC->dU-editing enzyme APOBEC-3G (Homo sapiens, UniProt Q9HC16); test: Dose Response confirmation of small molecule APOBEC3G DNA Deaminase Inhibitors via a fluorescence-based single-stranded DNA deaminase assay. [Related pubchem assays (depositor defined):AID493012, AID493028]; assay type: functional
[20] = biological target: Voltage-dependent T-type calcium channel subunit alpha-1H (Homo sapiens, UniProt O95180); assay type: functional;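 note: channel activity triggered by adding a high calcium stimulation buffer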

Peroxisome proliferator-activated receptor gamma/Nuclear receptor coactivator 1, sequence (P37231 whole entry): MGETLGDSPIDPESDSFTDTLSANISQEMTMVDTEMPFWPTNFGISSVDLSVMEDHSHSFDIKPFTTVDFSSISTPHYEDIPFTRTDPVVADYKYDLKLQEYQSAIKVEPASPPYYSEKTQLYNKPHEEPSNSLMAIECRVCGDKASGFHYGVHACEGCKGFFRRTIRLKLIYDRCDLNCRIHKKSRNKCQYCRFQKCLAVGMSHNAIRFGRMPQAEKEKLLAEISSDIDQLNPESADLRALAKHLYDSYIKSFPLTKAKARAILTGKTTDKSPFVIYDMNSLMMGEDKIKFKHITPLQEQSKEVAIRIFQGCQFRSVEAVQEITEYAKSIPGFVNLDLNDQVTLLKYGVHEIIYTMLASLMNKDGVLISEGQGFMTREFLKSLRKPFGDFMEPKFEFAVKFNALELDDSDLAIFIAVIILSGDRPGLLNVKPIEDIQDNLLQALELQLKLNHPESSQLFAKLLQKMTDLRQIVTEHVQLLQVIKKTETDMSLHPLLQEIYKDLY
Peroxisome proliferator-activated receptor gamma/Nuclear receptor coactivator 1, sequence (Q15788 whole entry, further chain): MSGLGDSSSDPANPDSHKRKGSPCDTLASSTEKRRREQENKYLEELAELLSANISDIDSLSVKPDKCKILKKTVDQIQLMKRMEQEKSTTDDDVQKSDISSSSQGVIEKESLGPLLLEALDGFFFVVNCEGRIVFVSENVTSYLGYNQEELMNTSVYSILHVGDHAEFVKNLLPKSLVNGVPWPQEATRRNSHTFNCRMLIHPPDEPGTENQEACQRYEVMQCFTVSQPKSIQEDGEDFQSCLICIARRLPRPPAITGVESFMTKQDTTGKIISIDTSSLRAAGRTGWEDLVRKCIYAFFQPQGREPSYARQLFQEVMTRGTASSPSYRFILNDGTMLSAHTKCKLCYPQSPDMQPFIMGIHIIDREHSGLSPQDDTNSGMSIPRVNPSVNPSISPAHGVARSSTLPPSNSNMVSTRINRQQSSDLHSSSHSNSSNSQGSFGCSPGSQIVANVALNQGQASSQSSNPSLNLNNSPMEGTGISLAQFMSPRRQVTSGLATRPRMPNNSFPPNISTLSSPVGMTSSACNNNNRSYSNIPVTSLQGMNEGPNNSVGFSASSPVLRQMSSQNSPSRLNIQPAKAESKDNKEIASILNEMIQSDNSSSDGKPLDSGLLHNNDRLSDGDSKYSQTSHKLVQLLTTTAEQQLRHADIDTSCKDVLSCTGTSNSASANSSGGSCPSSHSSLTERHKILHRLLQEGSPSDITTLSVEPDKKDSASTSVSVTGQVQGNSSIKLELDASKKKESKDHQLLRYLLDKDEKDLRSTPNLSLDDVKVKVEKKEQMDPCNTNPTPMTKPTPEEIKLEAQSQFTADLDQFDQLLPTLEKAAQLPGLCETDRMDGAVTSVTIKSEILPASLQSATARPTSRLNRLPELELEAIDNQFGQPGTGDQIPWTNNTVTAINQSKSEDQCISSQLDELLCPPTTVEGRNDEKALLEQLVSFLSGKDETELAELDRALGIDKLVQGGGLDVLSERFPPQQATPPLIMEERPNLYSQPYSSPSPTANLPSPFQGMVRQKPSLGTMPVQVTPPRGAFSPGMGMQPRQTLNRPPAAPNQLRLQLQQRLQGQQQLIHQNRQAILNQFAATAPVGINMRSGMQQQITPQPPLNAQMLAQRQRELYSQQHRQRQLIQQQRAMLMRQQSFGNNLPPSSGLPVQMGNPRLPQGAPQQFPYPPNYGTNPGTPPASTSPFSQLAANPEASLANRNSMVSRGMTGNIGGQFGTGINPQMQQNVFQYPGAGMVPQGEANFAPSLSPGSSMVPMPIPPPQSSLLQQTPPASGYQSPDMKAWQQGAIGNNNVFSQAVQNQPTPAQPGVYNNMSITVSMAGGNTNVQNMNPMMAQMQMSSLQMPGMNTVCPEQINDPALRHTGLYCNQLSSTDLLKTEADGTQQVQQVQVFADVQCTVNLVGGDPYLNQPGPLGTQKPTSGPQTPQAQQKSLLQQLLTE
Peroxisome proliferator-activated receptor gamma/Nuclear receptor coactivator 2, sequence (P37231 whole entry): as the sequence (P37231 whole entry) above
Peroxisome proliferator-activated receptor gamma/Nuclear receptor coactivator 2, sequence (Q15596 whole entry, further chain): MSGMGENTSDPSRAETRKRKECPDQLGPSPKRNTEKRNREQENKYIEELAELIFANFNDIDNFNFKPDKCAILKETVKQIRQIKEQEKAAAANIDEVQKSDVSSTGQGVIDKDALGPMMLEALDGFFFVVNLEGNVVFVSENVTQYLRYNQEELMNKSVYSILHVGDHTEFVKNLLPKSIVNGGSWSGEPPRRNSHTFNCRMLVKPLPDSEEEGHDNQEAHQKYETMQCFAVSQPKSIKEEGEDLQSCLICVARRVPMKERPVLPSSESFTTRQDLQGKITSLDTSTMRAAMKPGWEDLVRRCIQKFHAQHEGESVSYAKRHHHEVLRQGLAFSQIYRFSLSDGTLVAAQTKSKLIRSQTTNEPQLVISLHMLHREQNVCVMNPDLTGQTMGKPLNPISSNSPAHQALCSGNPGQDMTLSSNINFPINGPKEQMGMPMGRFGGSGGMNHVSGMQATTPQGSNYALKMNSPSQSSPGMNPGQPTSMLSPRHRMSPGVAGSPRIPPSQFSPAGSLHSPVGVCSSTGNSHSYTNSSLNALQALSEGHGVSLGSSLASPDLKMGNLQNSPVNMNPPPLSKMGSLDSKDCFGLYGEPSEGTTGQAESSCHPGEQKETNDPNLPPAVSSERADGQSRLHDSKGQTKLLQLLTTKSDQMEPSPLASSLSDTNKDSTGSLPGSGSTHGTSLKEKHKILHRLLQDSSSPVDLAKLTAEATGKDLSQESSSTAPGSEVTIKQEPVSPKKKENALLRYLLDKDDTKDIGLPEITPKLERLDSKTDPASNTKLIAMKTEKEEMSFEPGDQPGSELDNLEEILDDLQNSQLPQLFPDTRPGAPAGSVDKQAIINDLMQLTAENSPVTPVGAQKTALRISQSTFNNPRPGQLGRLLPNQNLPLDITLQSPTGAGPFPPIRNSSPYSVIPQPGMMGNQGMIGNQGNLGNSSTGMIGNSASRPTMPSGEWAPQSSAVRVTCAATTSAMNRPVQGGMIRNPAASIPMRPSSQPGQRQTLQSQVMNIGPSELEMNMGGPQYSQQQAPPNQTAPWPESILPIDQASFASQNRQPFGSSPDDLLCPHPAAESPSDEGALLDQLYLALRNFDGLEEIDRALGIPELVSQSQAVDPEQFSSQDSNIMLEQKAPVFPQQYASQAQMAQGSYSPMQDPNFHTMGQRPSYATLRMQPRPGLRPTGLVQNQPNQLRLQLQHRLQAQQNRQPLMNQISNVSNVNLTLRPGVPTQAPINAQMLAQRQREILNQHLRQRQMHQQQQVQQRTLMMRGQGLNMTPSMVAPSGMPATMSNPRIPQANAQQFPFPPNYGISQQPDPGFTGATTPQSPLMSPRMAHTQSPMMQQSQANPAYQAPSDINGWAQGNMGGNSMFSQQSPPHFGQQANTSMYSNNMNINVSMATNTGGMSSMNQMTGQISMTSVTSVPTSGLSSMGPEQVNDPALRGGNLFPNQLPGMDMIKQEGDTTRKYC
Eukaryotic translation initiation factor 4E, sequence (P63073 whole entry): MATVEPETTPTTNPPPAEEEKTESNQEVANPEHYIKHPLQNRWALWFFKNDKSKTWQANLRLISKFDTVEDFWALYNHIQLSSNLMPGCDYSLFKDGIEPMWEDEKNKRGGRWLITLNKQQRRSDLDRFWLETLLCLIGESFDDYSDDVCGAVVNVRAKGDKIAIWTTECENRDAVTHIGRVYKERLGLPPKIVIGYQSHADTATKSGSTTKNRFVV
DNA dC->dU-editing enzyme APOBEC-3G, sequence (Q9HC16 whole entry): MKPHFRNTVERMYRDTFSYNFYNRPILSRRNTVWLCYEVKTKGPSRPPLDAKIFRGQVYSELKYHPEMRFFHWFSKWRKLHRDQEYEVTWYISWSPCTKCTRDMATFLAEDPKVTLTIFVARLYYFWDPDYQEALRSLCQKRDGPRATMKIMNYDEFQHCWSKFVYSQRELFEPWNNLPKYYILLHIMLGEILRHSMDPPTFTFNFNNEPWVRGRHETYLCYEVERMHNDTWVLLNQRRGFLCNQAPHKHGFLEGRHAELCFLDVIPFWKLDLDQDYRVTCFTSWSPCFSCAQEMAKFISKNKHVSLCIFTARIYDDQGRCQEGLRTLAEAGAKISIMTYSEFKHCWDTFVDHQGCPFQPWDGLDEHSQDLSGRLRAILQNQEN

In the case of `CC(C)c1ccc(C(=O)NCc2ccc(Cl)cc2)cc1`, the IC50 [1] is reported as > 64 µM (inactive).
For `O=S(=O)(Nc1ccc(-c2csc(-c3ccccc3)n2)cc1)c1ccc(F)cc1`, the EC50 [2] was 8.48 µM (active), the EC50 [3] was > 60 µM (not active) and the IC50 [4] was 8.02 µM (not active). For the same compound, the EC50 [5] was 2.05 µM (active), the EC50 [6] was 2.45 µM (active) and the EC50 [7] was 5.63 µM (active).
In the case of `COC(=O)c1c(NC(=O)CC2NCCNC2=O)sc2c1CCCC2` (stereo not given), the CC50 [8] is reported as > 40 µM (active).
For `CC(=O)Nc1ccc(S(=O)(=O)n2cnc3cc(C)c(C)cc32)cc1`, the IC50 [9] was > 50 µM (not active).
For `NC(=O)CSc1oc(-c2cccs2)nc1S(=O)(=O)c1ccccc1`, the EC50 [10] was > 79.4 µM (not active), the EC50 [11] was 10.8 µM (not active) and the EC50 [12] was 10.9 µM (inactive).
With `Cn1c(N)c(C(=O)COC(=O)c2ccc(Cl)c(S(=O)(=O)N3CCCCC3)c2)c(=O)n(C)c1=O` the IC50 [4] was 29.2 µM (not active).
With `Cc1cc(N2CCCCC2)nc2ccc(NC(=O)c3ccc(Br)o3)cc12` the IC50 [4] was 3.3 µM (not active).
For `CCOc1ccc(NC(=O)CSc2nc(N)c(-c3ccccc3)c(=O)[nH]2)cc1`, the IC50 [13] was 5.72 µM (active).
In the case of `COc1cccc(-c2nn(C)c3sc(C(=O)Nc4ccc5c(c4)OCCO5)cc23)c1`, the EC50 [2] is reported as > 150 µM (not active), the CC50 [8] is reported as > 40 µM (active) and the EC50 [14] is reported as 5.99 µM (active). For the same compound, the EC50 [15] was 22.9 µM (active), the EC50 [5] was 6.53 µM (active) and the EC50 [16] was > 120 µM (not active). The EC50 [7] was 13.9 µM (active).
With `O=C(Nc1cccnc1)c1sc(Nc2ccccc2F)nc1-c1ccccc1` the EC50 [10] was 28.3 µM (not active), the EC50 [11] was 6.83 µM (active) and the EC50 [12] was 6.48 µM (active).
For `CN1CCN(C(=O)CSc2nc(-c3cccs3)cc(-c3cccs3)c2C#N)CC1`, the EC50 [17] was 9.41 µM (active) and the EC50 [18] was 10 µM (active).
With `CCOc1ccc2nc(O)c(CN(Cc3ccco3)C(=O)c3ccc(Br)cc3)cc2c1` the CC50 [8] was 32.4 µM (active).
For `COc1ccccc1NS(=O)(=O)c1cc(N)ccc1N1CCCCC1`, the IC50 [19] was 72.5 µM (active).
With `O=C(Nc1ccccc1)c1nnn(Cc2ccccc2)c1NC(=O)C(F)(F)F` the EC50 [20] was 4.59 µM (active).
